# Source: paper PMC4864329, “In vitro and in vivo efficacy, toxicity, bio-distribution and resistance selection of a novel antibacterial drug candidate” (Scientific Reports, 2016)
# Values joined by “and” are separate entries in the source; they are usually repeats but may differ in a detail not shown here. Identical values can stand only once. Like-named read-outs stand apart in the source and are kept apart here.
# Key:
# [1] = system: Klebsiella pneumoniae clinical isolates; format: cell-based
# Method: Minimum inhibitory concentrations (MICs) of SET-M33L were determined against 76 clinical isolates of Pseudomonas aeruginosa and 73 clinical isolates of Klebsiella pneumoniae. The isolates were selected on the basis of their resistance phenotypes and major antibiotic resistance determinants, including resistance to colistin and carriage of carbapenemase-encoding genes (Table 1 and supplemental Tables S1 and S2).
# MIC values were determined against a large collection of clinical isolates. Most isolates were collected during routine susceptibility testing procedures at the Clinical Microbiology Unit of Careggi University Hospital in Florence, while specific isolates were selected according to their phenotype or genotype (e.g. carriage of carbapenemase-encoding genes, inclusion in epidemic bacterial clones, resistance to colistin) from a collection of isolates already available at Department of Medical Biotechnologies, University of Siena. Detailed features of each strain, including relevant resistance phenotypes and genotypes were reported in supplemental Tables S1 and S2. MICs were determined in triplicate using a standard microdilution assay according to the guidelines of the Clinical and Laboratory Standards Institute[34]. SET-M33L was assayed using concentrations in the range 0.09–11.2 μM (0.5–64 μg/mL); testing was performed using a bacterial inoculum of 5 × 10^4 CFU/well prepared in cation-supplemented Mueller-Hinton broth (MHB) (Becton Dickinson, Franklin Lakes, NJ, USA) in a final volume of 100 μl. Results were recorded after 18–20 h of incubation at 35 °C.
# [2] = system: K. pneumoniae strain KKBO-1; format: cell-based, Klebsiella pneumoniae; conditions: K. pneumoniae KKBO-1
# Method: Tests were performed by plating cells on SET-M33L- or colistin-containing MHB.
substance,measurement,setting,value
colistin sulfate,MIC,"[1]; isolate SI_K1, CARB, β/I, ESC, FQ, AG, COL, blaNDM",32 µg/mL
same,MIC,"[1]; isolate SI_K2, CARB, ESC, FQ, AG, blaCTX-M",≤ 0.5 µg/mL
same,MIC,"[1]; isolate SI_K3, CARB, β/I, ESC, AG, blaVIM",0.5 µg/mL
same,MIC,"[1]; isolate SI_K4, CARB, β/I, ESC, FQ, blaOXA-48",0.5 µg/mL
same,MIC,"[1]; isolate SI_K5, CARB, β/I, ESC, FQ, blaOXA-48",0.5 µg/mL
same,MIC,"[1]; isolate SI_K6, CARB, β/I, ESC, FQ, AG, blaKPC",0.5 µg/mL
same,MIC,"[1]; isolate SI_K7, CARB, β/I, ESC, FQ, blaKPC",0.5 µg/mL
same,MIC,"[1]; isolate SI_K8, CARB, β/I, ESC, FQ, AG, blaKPC",≤ 0.5 µg/mL
same,MIC,"[1]; isolate SI_K9, CARB, β/I, ESC, FQ, AG, blaKPC",2 µg/mL
same,MIC,"[1]; isolate SI_K10, CARB, β/I, ESC, FQ, COL, blaKPC",> 32 µg/mL
same,MIC,"[1]; isolate SI_K11, CARB, β/I, ESC, FQ, AG, blaKPC",≤ 0.5 µg/mL
same,MIC,"[1]; isolate SI_K12, phenotype none",≤ 0.5 µg/mL
same,MIC,"[1]; isolate SI_K13, β/I, ESC, FQ, AG, ESBL",≤ 0.5 µg/mL
same,MIC,"[1]; isolate SI_K14, phenotype none",≤ 0.5 µg/mL
same,MIC,"[1]; isolate SI_K15, phenotype none",≤ 0.5 µg/mL
same,MIC,"[1]; isolate SI_K16, phenotype none",≤ 0.5 µg/mL
same,MIC,"[1]; isolate SI_K17, CARB, β/I, ESC, FQ, AG, COL, blaKPC",> 32 µg/mL
same,MIC,"[1]; isolate SI_K18, phenotype none",≤ 0.5 µg/mL
same,MIC,"[1]; isolate SI_K19, ESC, ESBL",≤ 0.5 µg/mL
same,MIC,"[1]; isolate SI_K20, phenotype none",≤ 0.5 µg/mL
same,MIC,"[1]; isolate SI_K21, phenotype none",≤ 0.5 µg/mL
same,MIC,"[1]; isolate SI_K22, phenotype none",≤ 0.5 µg/mL
same,MIC,"[1]; isolate SI_K23, phenotype none",≤ 0.5 µg/mL
same,MIC,"[1]; isolate SI_K24, phenotype none",≤ 0.5 µg/mL
same,MIC,"[1]; isolate SI_K25, phenotype none",≤ 0.5 µg/mL
same,MIC,"[1]; isolate SI_K26, phenotype none",≤ 0.5 µg/mL
same,MIC,"[1]; isolate SI_K27, phenotype none",≤ 0.5 µg/mL
same,MIC,"[1]; isolate SI_K28, β/I, ESC, FQ, AG, ESBL",≤ 0.5 µg/mL
same,MIC,"[1]; isolate SI_K29, ESC, AG, blaCTX-M",0.5 µg/mL
same,MIC,"[1]; isolate SI_K30, phenotype none",≤ 0.5 µg/mL
same,MIC,"[1]; isolate SI_K31, β/I, ESC, FQ, AG, COL, ESBL",16 µg/mL
same,MIC,"[1]; isolate SI_K32, phenotype none",≤ 0.5 µg/mL
same,MIC,"[1]; isolate SI_K33, phenotype none",≤ 0.5 µg/mL
same,MIC,"[1]; isolate SI_K34, phenotype none",≤ 0.5 µg/mL
same,MIC,"[1]; isolate SI_K35, CARB, β/I, ESC, FQ, AG, blaKPC",≤ 0.5 µg/mL
same,MIC,"[1]; isolate SI_K36, CARB, β/I, ESC, FQ, AG, COL, blaKPC",> 32 µg/mL
same,MIC,"[1]; isolate SI_K37, phenotype none",≤ 0.5 µg/mL
same,MIC,"[1]; isolate SI_K38, phenotype none",≤ 0.5 µg/mL
same,MIC,"[1]; isolate SI_K39, phenotype none",≤ 0.5 µg/mL
same,MIC,"[1]; isolate SI_K40, CARB, β/I, ESC, FQ, AG, COL, blaKPC",> 32 μg/mL and > 24 μM
same,MIC,"[1]; isolate SI_K41, β/I, ESC, FQ, AG, ESBL",≤ 0.5 μg/mL and ≤ 0.4 μM
same,MIC,"[1]; isolate SI_K42, phenotype none",≤ 0.5 μg/mL and ≤ 0.4 μM
same,MIC,"[1]; isolate SI_K43, phenotype none",≤ 0.5 μg/mL and ≤ 0.4 μM
same,MIC,"[1]; isolate SI_K44, phenotype none",≤ 0.4 μM and ≤ 0.5 μg/mL
same,MIC,"[1]; isolate SI_K45, FQ",≤ 0.5 μg/mL and ≤ 0.4 μM
same,MIC,"[1]; isolate SI_K46, β/I",≤ 0.5 μg/mL and ≤ 0.4 μM
same,MIC,"[1]; isolate SI_K47, phenotype none",≤ 0.5 μg/mL and ≤ 0.4 μM
same,MIC,"[1]; isolate SI_K48, phenotype none",≤ 0.5 μg/mL and ≤ 0.4 μM
same,MIC,"[1]; isolate SI_K49, phenotype none",≤ 0.5 μg/mL and ≤ 0.4 μM
same,MIC,"[1]; isolate SI_K50, phenotype none",≤ 0.5 μg/mL and ≤ 0.4 μM
same,MIC,"[1]; isolate SI_K51, phenotype none",≤ 0.5 μg/mL and ≤ 0.4 μM
same,MIC,"[1]; isolate SI_K52, phenotype none",≤ 0.5 μg/mL and ≤ 0.4 μM
same,MIC,"[1]; isolate SI_K53, β/I, ESC, FQ, ESBL",≤ 0.5 μg/mL and ≤ 0.4 μM
same,MIC,"[1]; isolate SI_K54, phenotype none",≤ 0.5 μg/mL and ≤ 0.4 μM
same,MIC,"[1]; isolate SI_K55, β/I, ESC, FQ, AG, ESBL",≤ 0.5 μg/mL and ≤ 0.4 μM
same,MIC,"[1]; isolate SI_K56, phenotype none",≤ 0.5 μg/mL and ≤ 0.4 μM
same,MIC,"[1]; isolate SI_K57, β/I, FQ",≤ 0.5 μg/mL and ≤ 0.4 μM
same,MIC,"[1]; isolate SI_K58, phenotype none",≤ 0.5 μg/mL and ≤ 0.4 μM
same,MIC,"[1]; isolate SI_K59, phenotype none",≤ 0.5 μg/mL and ≤ 0.4 μM
same,MIC,"[1]; isolate SI_K60, phenotype none",≤ 0.5 μg/mL and ≤ 0.4 μM
same,MIC,"[1]; isolate SI_K61, CARB, β/I, ESC, FQ",≤ 0.5 μg/mL and ≤ 0.4 μM
same,MIC,"[1]; isolate SI_K62, CARB, β/I, ESC, FQ, AG, ESBL",≤ 0.5 μg/mL and ≤ 0.4 μM
same,MIC,"[1]; isolate SI_K63, β/I, ESC, FQ, AG, ESBL",≤ 0.5 μg/mL and ≤ 0.4 μM
same,MIC,"[1]; isolate SI_K64, phenotype none",≤ 0.5 μg/mL and ≤ 0.4 μM
same,MIC,"[1]; isolate SI_K65, phenotype none",≤ 0.5 μg/mL and ≤ 0.4 μM
same,MIC,"[1]; isolate SI_K66, β/I, ESC, FQ, AG, ESBL",≤ 0.5 μg/mL and ≤ 0.4 μM
same,MIC,"[1]; isolate SI_K67, β/I, ESC, FQ, AG, ESBL",≤ 0.5 μg/mL and ≤ 0.4 μM
same,MIC,"[1]; isolate SI_K68, phenotype none",≤ 0.5 μg/mL and ≤ 0.4 μM
same,MIC,"[1]; isolate SI_K69, β/I, ESC, FQ, AG, ESBL",≤ 0.5 μg/mL and ≤ 0.4 μM
same,MIC,"[1]; isolate SI_K70, β/I, ESC, FQ",≤ 0.5 μg/mL and ≤ 0.4 μM
same,MIC,"[1]; isolate SI_K71, CARB, β/I, ESC, FQ, blaKPC",≤ 0.5 μg/mL and ≤ 0.4 μM
same,MIC,"[1]; isolate SI_K72, CARB, β/I, ESC, FQ, AG, COL, blaNDM",> 32 μg/mL and > 24 μM
same,MIC,"[1]; isolate SI_K73, CARB, ESC, FQ, AG, blaCTX-M",≤ 0.5 μg/mL and ≤ 0.4 μM
same,MIC,[2],0.15 µM
